Experimental data: patent publication US10508085B2, “Compounds and methods for IDO and TDO modulation, and indications therefor” (Plexxikon Inc., priority 2016, dated 2019)
Where two headings read alike, the source gives them in different places.

Assays:
[1] = molecular target: T1, human IDO (IDO1-expressing HEK293 cells) (Homo sapiens, UniProt P14902); experiment: Cell based kynurenine assay, IDO1-expressing HEK293 cell clones; details: IDO1-expressing HEK293 cells, geometric mean, read-out: HEK293 IDO1 Kynurenine GMean IC50 (μM) (Cellular Assay)
T1 construct: expressed in transfected cells
In short: (§1)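 HEK293 clones stably expressing human IDO1 or human TDO (CMV promoter), 2.5×10^4 cells/well, given serial compound dilutions for 24 h. Kynurenine measured in supernatant; inhibition relative to cell/0.2% DMSO and media-only controls. IC50 by nonlinear regression.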

[2] = molecular target: T2, Human Tryptophan 2,3-dioxygenase (TDO) (Homo sapiens, UniProt P48775); experiment: Human TDO enzymatic assay (kynurenine level); format: biochemical; details: 1 nM TDO, 350 μM L-Trp; geometric mean; read-out: TDO GMean: IC50 (μM) (Biochemical Assay)
T2 construct: His tag (N); made in house; host or cells: E. coli
In short: (§2)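 N-terminally His-tagged enzymes expressed in E. coli were run in 50 mM sodium phosphate pH 6.5 with 10 mM ascorbate, catalase and Tween 20. IDO: 6 nM enzyme, 10 μM L-Trp, 5 μM methylene blue, 20 min RT. TDO: 1 nM enzyme, 350 μM L-Trp, 0.4 μM methylene blue, 70 min RT.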

[3] = molecular target: T3, human TDO (TDO-expressing HEK293 cells) (Homo sapiens, UniProt P48775); experiment: Cell based kynurenine assay, TDO-expressing HEK293 cell clones; details: TDO-expressing HEK293 cells, geometric mean, read-out: HEK293 TDO Kynurenine GMean IC50 (μM) (Cellular Assay)
T3 construct: expressed in transfected cells
In short: as §1

[4] = molecular target: T4, Human Indoleamine 2,3-dioxygenase (IDO) (Homo sapiens, UniProt P14902); experiment: Human IDO enzymatic assay (kynurenine level); format: biochemical; details: 6 nM IDO, 10 μM L-Trp; geometric mean; read-out: IDO1 GMean: IC50 (μM) (Biochemical Assay)
T4 construct: His tag (N); made in house; host or cells: E. coli
In short: as §2

T3 sequence (P48775 whole entry): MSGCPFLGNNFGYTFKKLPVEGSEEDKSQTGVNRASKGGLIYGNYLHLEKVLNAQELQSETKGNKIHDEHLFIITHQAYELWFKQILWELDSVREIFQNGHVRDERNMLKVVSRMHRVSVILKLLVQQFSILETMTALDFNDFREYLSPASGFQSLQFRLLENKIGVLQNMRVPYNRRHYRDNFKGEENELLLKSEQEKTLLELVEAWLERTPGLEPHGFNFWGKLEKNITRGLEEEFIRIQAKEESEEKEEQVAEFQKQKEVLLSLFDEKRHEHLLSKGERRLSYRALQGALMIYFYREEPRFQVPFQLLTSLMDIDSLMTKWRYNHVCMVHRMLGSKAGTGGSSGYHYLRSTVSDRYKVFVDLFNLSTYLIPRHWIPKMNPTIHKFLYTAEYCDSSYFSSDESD
T2 sequence (P48775 whole entry): as above
T4 sequence (P14902 whole entry): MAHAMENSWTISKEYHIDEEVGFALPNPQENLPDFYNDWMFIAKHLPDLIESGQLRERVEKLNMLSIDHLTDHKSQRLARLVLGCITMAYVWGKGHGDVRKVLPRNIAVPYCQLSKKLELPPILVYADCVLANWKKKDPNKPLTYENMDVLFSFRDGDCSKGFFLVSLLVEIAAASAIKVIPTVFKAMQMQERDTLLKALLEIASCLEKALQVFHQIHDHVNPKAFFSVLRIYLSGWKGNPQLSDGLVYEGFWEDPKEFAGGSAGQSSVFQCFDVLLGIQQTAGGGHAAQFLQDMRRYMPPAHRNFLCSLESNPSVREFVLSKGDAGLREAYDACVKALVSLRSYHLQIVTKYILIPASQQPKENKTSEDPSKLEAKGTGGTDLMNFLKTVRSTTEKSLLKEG
T1 sequence (P14902 whole entry): as above

IC50 ([1]; 24 hours)	IC50 [2]	IC50 ([3]; 24 hours)	IC50 [4]	IC50 ([1]; 24 hours incubation)	IC50 ([3]; 24 hours incubation)	SMILES
0.0001 to 10 µM	0.0001 to 10 µM	0.0001 to 10 µM	0.0001 to 10 µM			COCC(=O)N1CCC(C(C)(C)[C@@H](O)c2cc(Cl)cc3cn[nH]c23)CC1 [Compound P-0435, (R)-1-(4-(1-(5-chloro-1H-indazol-7-yl)-1-hydroxy-2-methylpropan-2-yl)piperidin-1-yl)-2-methoxyethan-1-one]
	0.0001 to 10 µM		0.0001 to 10 µM	0.0001 to 10 µM	0.0001 to 10 µM	CC1(C(O)c2c(F)c(Cl)c(F)c3cn[nH]c23)CCCCC1 (stereo not shown) [Compound P-0123, (5-chloro-4,6-difluoro-1H-indazol-7-yl)(1-methylcyclohexyl)methanol]
	0.0001 to 10 µM		10 to 100 µM	> 10 µM	0.0001 to 10 µM	O=S(=O)(NC1CC(O)(c2cc(Cl)cc3cn[nH]c23)C1)C1CC1 (stereo not shown) [Compound P-0045, N-(3-(5-chloro-1H-indazol-7-yl)-3-hydroxycyclobutyl)cyclopropanesulfonamide]
	0.0001 to 10 µM		0.0001 to 10 µM	0.0001 to 10 µM	0.0001 to 10 µM	CC(C)(Cc1ccccc1)C(O)c1cc(Cl)cc2cn[nH]c12 (stereo not shown) [Compound P-0026, 1-(5-chloro-1H-indazol-7-yl)-2,2-dimethyl-3-phenylpropan-1-ol]
0.0001 to 10 µM	0.0001 to 10 µM	0.0001 to 10 µM	0.0001 to 10 µM			COCC(=O)N1CCC(C(C)(C)[C@H](O)c2c(F)c(Cl)cc3cn[nH]c23)CC1 [Compound P-0506, (S)-1-(4-(1-(5-chloro-6-fluoro-1H-indazol-7-yl)-1-hydroxy-2-methylpropan-2-yl)piperidin-1-yl)-2-methoxyethan-1-one]
0.0001 to 10 µM	0.0001 to 10 µM	0.0001 to 10 µM	0.0001 to 10 µM			CC(C)(C1CCN(C(=O)CN2CCOCC2)CC1)C(O)c1cc(Cl)cc2cn[nH]c12 (stereo not shown) [Compound P-0441, 1-(4-(1-(5-chloro-1H-indazol-7-yl)-1-hydroxy-2-methylpropan-2-yl)piperidin-1-yl)-2-morpholinoethan-1-one]
	0.0001 to 10 µM		0.0001 to 10 µM	0.0001 to 10 µM	0.0001 to 10 µM	OC(c1c(F)c(Cl)cc2cn[nH]c12)C1CC2CCC1C2 (stereo not shown) [Compound P-0258, bicyclo[2.2.1]heptan-2-yl(5-chloro-6-fluoro-1H-indazol-7-yl)methanol]
0.0001 to 10 µM	0.0001 to 10 µM	0.0001 to 10 µM	0.0001 to 10 µM			Cc1ccc(Cl)c(NC(=O)N2CCC(C(C)(C)C(O)c3cc(Cl)cc4cn[nH]c34)CC2)c1 (stereo not shown) [Compound P-0406, 4-(1-(5-chloro-1H-indazol-7-yl)-1-hydroxy-2-methylpropan-2-yl)-N-(2-chloro-5-methylphenyl) piperidine-1-carboxamide]
	0.0001 to 10 µM		0.0001 to 10 µM	0.0001 to 10 µM	> 10 µM	Cc1ccc2cn[nH]c2c1C(O)C12CC3CC(CC(C3)C1)C2 (stereo not shown) [Compound P-0037, ((ls,3s)-adamantan-1-yl)(6-methyl-1H-indazol-7-yl)methanol]
0.0001 to 10 µM	0.0001 to 10 µM	0.0001 to 10 µM	0.0001 to 10 µM			CC(C)(C)OC(=O)N1CCC(C(F)(F)C(O)c2c3c(cc4cn[nH]c24)CC3)CC1 (stereo not shown) [Compound P-0490, tert-butyl 4-(2-(5,6-dihydro-1H-cyclobuta[f]indazol-7-yl)-1,1-difluoro-2-hydroxyethyl) piperidine-1-carboxylate]
	0.0001 to 10 µM		0.0001 to 10 µM	0.0001 to 10 µM	0.0001 to 10 µM	CC(C)(C1CCOCC1)C(O)c1cc(Cl)c(F)c2cn[nH]c12 (stereo not shown) [Compound P-0217, 1-(5-chloro-4-fluoro-1H-indazol-7-yl)-2-methyl-2-(tetrahydro-2H-pyran-4-yl)propan-1-ol]
	0.0001 to 10 µM		0.0001 to 10 µM	0.0001 to 10 µM	> 10 µM	OC(c1cc(Cl)cc2cn[nH]c12)C1(Cc2cccc(F)c2)CCC1 (stereo not shown) [Compound P-0188, (5-chloro-1H-indazol-7-yl)(1-(3-fluorobenzyl)cyclobutyl)methanol]
	0.0001 to 10 µM		0.0001 to 10 µM	0.0001 to 10 µM	0.0001 to 10 µM	OC(c1cc(Cl)cc2cn[nH]c12)C1(C(F)(F)F)CCCC1 (stereo not shown) [Compound P-0053, (5-chloro-1H-indazol-7-yl)(1-(trifluoromethyl)cyclopentyl)methanol]
	0.0001 to 10 µM		0.0001 to 10 µM	0.0001 to 10 µM	0.0001 to 10 µM	CC(C)(C1CCC1)C(O)c1cc(Cl)cc2cn[nH]c12 (stereo not shown) [Compound P-0118, 1-(5-chloro-1H-indazol-7-yl)-2-cyclobutyl-2-methylpropan-1-ol]
	0.0001 to 10 µM		0.0001 to 10 µM	> 10 µM	> 10 µM	O=S(=O)(c1ccccc1)C1(C(O)c2cc(Cl)cc3cn[nH]c23)CC1 (stereo not shown) [Compound P-0266, (5-chloro-1H-indazol-7-yl)(1-(phenylsulfonyl)cyclopropyl)methanol]
	0.0001 to 10 µM		0.0001 to 10 µM	0.0001 to 10 µM	0.0001 to 10 µM	OC(c1cc(Cl)cc2cn[nH]c12)C12CC(C1)C2 (stereo not shown) [Compound P-0209, bicyclo[1.1.1]pentan-1-yl(5-chloro-1H-indazol-7-yl)methanol]
0.0001 to 10 µM	0.0001 to 10 µM	0.0001 to 10 µM	0.0001 to 10 µM			CC(C)(C1CCN(C(=O)Nc2ccc(F)cc2)CC1)[C@H](O)c1c(F)c(Cl)cc2cn[nH]c12 [Compound P-0512, (S)-4-(1-(5-chloro-6-fluoro-1H-indazol-7-yl)-1-hydroxy-2-methylpropan-2-yl)-N-(4-fluorophenyl) piperidine-1-carboxamide]
	10 to 100 µM		0.0001 to 10 µM	> 10 µM	> 10 µM	OC(CCc1ccccc1)c1cccc2cncn12 (stereo not shown) [Compound P-0074, 1-(imidazo[1,5-a]pyridin-5-yl)-3-phenylpropan-1-ol]
	0.0001 to 10 µM		0.0001 to 10 µM	> 10 µM	0.0001 to 10 µM	OC(c1cc(Cl)cc2[nH]ncc12)C1CCCCC1 (stereo not shown) [Compound P-0173, (6-chloro-1H-indazol-4-yl)(cyclohexyl)methanol]
	0.0001 to 10 µM		0.0001 to 10 µM	0.0001 to 10 µM	0.0001 to 10 µM	OC(c1cc(Cl)cc2cn[nH]c12)C12CCC(O)(CC1)CC2 (stereo not shown) [Compound P-0133, 4-((5-chloro-1H-indazol-7-yl)(hydroxy)methyl)bicyclo[2.2.2]octan-1-ol]
0.0001 to 10 µM	0.0001 to 10 µM	0.0001 to 10 µM	0.0001 to 10 µM			O=C(C1CCC1)N1CCC(C(F)(F)C(O)c2c(F)c(Cl)cc3cn[nH]c23)CC1 (stereo not shown) [Compound P-0409, (4-(2-(5-chloro-6-fluoro-1H-indazol-7-yl)-1,1-difluoro-2-hydroxyethyl)piperidin-1-yl)(cyclobutyl) methanone]
	0.0001 to 10 µM		0.0001 to 10 µM	0.0001 to 10 µM	0.0001 to 10 µM	CC1(C)CN(c2cc(C(F)(F)F)cc3cn[nH]c23)CCN1S(C)(=O)=O [Compound P-0091]
	0.0001 to 10 µM		0.0001 to 10 µM	> 10 µM	> 10 µM	OC(c1cccc2cncn12)C1CCC1 (stereo not shown) [Compound P-0080, cyclobutyl(imidazo[1,5-a]pyridin-5-yl)methanol]
	> 200 µM		0.0001 to 10 µM	0.0001 to 10 µM	> 10 µM	O[C@@H](c1cc(Cl)cc2cn[nH]c12)C12CCC(CC1)CC2 [Compound P-0382, (R)-bicyclo[2.2.2] octan-1-yl(5-chloro-1H-indazol-7-yl)methanol]
0.0001 to 10 µM	0.0001 to 10 µM	0.0001 to 10 µM	0.0001 to 10 µM			O=C(NC1CCOCC1)N1CCC(C(F)(F)C(O)c2cc(Cl)cc3cn[nH]c23)CC1 (stereo not shown) [Compound P-0462, 4-(2-(5-chloro-1H-indazol-7-yl)-1,1-difluoro-2-hydroxyethyl)-N-(tetrahydro-2H-pyran-4-yl)piperidine-1-carboxamide]
0.0001 to 10 µM	> 200 µM	0.0001 to 10 µM	0.0001 to 10 µM			CC(C)(C)OC(=O)N1CCC(C(F)(F)[C@@H](O)c2c3c(cc4cn[nH]c24)CC3)CC1 [Compound P-0528, tert-butyl (S)-4-(2-(5,6-dihydro-1H-cyclobuta[f]indazol-7-yl)-1,1-difluoro-2-hydroxyethyl) piperidine-1-carboxylate]
	0.0001 to 10 µM		0.0001 to 10 µM	0.0001 to 10 µM	0.0001 to 10 µM	CC1(C(O)c2cc(Cl)cc3cn[nH]c23)CCC1 (stereo not shown) [Compound P-0117, (5-chloro-1H-indazol-7-yl)(1-methylcyclobutyl)methanol]
	0.0001 to 10 µM		0.0001 to 10 µM	0.0001 to 10 µM	0.0001 to 10 µM	CN1CCC(C(C)(C)C(O)c2cc(Cl)cc3cn[nH]c23)CC1 (stereo not shown) [Compound P-0318, 1-(5-chloro-1H-indazol-7-yl)-2-methyl-2-(1-methylpiperidin-4-yl)propan-1-ol]
